Entries after “also recorded” stand apart in the source; their conditions may differ.
Key:
HLO [1] = experiment: HLO survival assay, Intralipid exposed HLO (PNALD model); assay type: cell-based; details: added to 400 μM Intralipid exposed HLO (PNALD-HLO); FGF19 40 ng/ml
Description: PNALD is an iatrogenic fatty liver disease which occurs frequently in infants provided with parental nutrition (PN) solutions employing a lipid emulsion (Intralipid) that provide life-sustaining calories in the setting of inadequate absorption of enteral nutrients (Kumar and Teckman, 2015; Orso et al., 2016). PNALD has a histological evidence of steatosis, cell death (apoptosis), and fibrosis (Nandivada et al., 2013). To recapitulate PNALD pathology in HLO, we reconstituted components of Intralipid and placed it directly into HLO culture.
[…]; Kumar and Teckman, 2015; Neuschwander-Tetri et al., 2015). To implicate the therapeutic significance of OCA and FGF19 for PNALD like pathology in HLO, OCA and FGF19 were added to 400 μM Intralipid exposed HLO. […] Mechanistically, the accumulation of reactive oxygen species (ROS) is strongly associated with the fatty liver related hepatocyte death (Nandivada et al., 2013; Tsedensodnom and Sadler, 2013). We thus wondered whether OCA and FGF19 would inhibit the production of ROS so we sought to confirm that theory with live-cell imaging with CellROX dye. […]. […]
HLO survival assay. […] HLO were captured on The KEYENCE BZ-X710 Fluorescence Microscope every day. The surviving and dead organoids were counted manually from the photo. HLO with a rounded configuration was counted as the surviving while the organoids with out of shape is counted as dead. […]

HLO [2] = experiment: HLO survival, 800 μM OA treated HLO (3D cell titer glo); assay type: cell-based, human; details: 800 μM OA + FGF19 40 ng/ml, same time point
Experimental: LPS and FFA exposure and OCA and FGF19 treatment. 20-30 hLOHLO, which had been isolated from Matrigel and washed by 1×PBS, were divided into each condition and cultured on an ultra-low attachment 6 multi-well plates (Corning). HLO were cultured with LPS (Sigma), OA (Sigma), LA (Sigma), SA (Sigma), or PA (Sigma) and collected at day 1 and 3 (for LPS HLO) and at day 3 and 5 (for OA) after the culture. To test the inhibitory effect of OCA (INT-747, MedChem Express, NJ, USA) and human FGF19 recombinant (Sigma) on HLO, 20-30 HLO were cultured in HCM media in the presence or absence of oleic acid (800 μM), and 1 μM OCA and 40 ng/ml FGF19 were added into 800 μM OA condition. HLO were collected at day 3 for lipids live-cell imaging and at day 5 for stiffness measurement.
HLO survival assay. HLO were collected from Matrigel and washed by 1×PBS. 30-40 organoids were cultured on an ultra-low attachment 6 multi-well plate (Corning). HLO were captured on The KEYENCE BZ-X710 Fluorescence Microscope every day. The surviving and dead organoids were counted manually from the photo. HLO with a rounded configuration was counted as the surviving while the organoids with out of shape is counted as dead. To assess the survival rate of OA treated HLO at the same time point, 3D cell titer glo assay was used (Promega, Wi, USA).

HLO [3] = experiment: ROS live-cell imaging with CellROX dye in HLO; assay type: cell-based, human; details: for ROS production: 400 μM Intralipid treated HLO, live-cell imaging, CellROX
Description: Because there are no established ameliorative strategies, and PNALD is the leading indication for liver transplantation in infants (El Kasmi et al., 2013), we further investigated preventive and therapeutic effects of FXR agonist obeticholic acid (OCA) and FGF19 hormone that are activated by OCA, which have shown great potential in nonalcoholic steatohepatitis treatment (Dash et al., 2017; Kumar and Teckman, 2015; Neuschwander-Tetri et al., 2015). To implicate the therapeutic significance of OCA and FGF19 for PNALD like pathology in HLO, OCA and FGF19 were added to 400 μM Intralipid exposed HLO. […] Mechanistically, the accumulation of reactive oxygen species (ROS) is strongly associated with the fatty liver related hepatocyte death (Nandivada et al., 2013; Tsedensodnom and Sadler, 2013). We thus wondered whether OCA and FGF19 would inhibit the production of ROS so we sought to confirm that theory with live-cell imaging with CellROX dye.
Phagocyte, lipids, ROS live-cell imaging. After being cultured in an ultra-low attachment 6 multi-well plate, 5-10 HLO were picked up and seeded in a Microslide 8 Well Glass Bottom plate (Ibidi, WI, USA) and subjected to live-cell staining. The following antibodies were used: pHrodo® Red S. aureus Bioparticles® Conjugate for Phagocyte activity (Thermo Fisher Scientific Inc.), BODIPY® 493/503 for lipids (Thermo Fisher Scientific Inc.), Di-8-ANEPPS for membrane (Thermo Fisher Scientific Inc.), and CellROX green reagent for ROS detection (Thermo Fisher Scientific Inc.). Nuclear staining was marked by NucBlue Live ReadyProbes Reagent (Thermo Fisher Scientific Inc.). […] The final lipid droplet volume was calculated by IMARIS8 and normalized by each organoid size. Significance testing for lipid droplet volume and ROS production (%) was conducted by Student's t-test.

HLO [4] = experiment: HLO stiffness measurement by AFM; assay type: cell-based, human
Experimental: To further determine whether OCA and FGF19 have an impact on fibrosis, HLO stiffness was assessed. Organoid damage induced by Intralipid is extremely significant and treated HLOs for 5 days are not able to be stabilized on a dish, which is a minimal requirement for assessing the rigidity by AFM. To circumvent this limitation, the stiffness was assessed at Day3.
LPS and FFA exposure and OCA and FGF19 treatment. 20-30 hLOHLO, which had been isolated from Matrigel and washed by 1×PBS, were divided into each condition and cultured on an ultra-low attachment 6 multi-well plates (Corning). […]
HLO stiffness measurement by AFM. […] The AFM head with a silicon nitride cantilever (CSC37, k=0.3 N/m, MikroMasch, Bulgaria) was mounted on a fluorescence stereo microscope (M205 FA, Leica, Germany) coupled with a Z-axis piezo stage (JPK CellHesion module, JPK Instruments, Germany), which allows the indentation measurement up to the depth of ˜100 μm. […] The sample dish was then placed onto the AFM stage, and force-distance curves in a 14×14 matrix in a 25×25 μm square were measured from each HLO. Finally, Young's moduli (E, Pa) of HLOs were determined by fitting the obtained force-distance curves with the modified Hertz model (Sneddon, 1965). […]

Row | Compound | number of surviving organoids (HLO [1]) | survival of 800 μM OA HLO (HLO [2]) | ROS production (HLO [3]) [%] | effect on ROS production caused by 400 μM Int (HLO [3]; 400 μM Intralipid, FGF19 40 ng/ml) | stiffness of OA treated HLO (AFM) (HLO [4]; 800 μM OA + FGF19 40 ng/ml) | progression of fibrosis (HLO stiffness) (HLO [4]; Intralipid treated HLO, stiffness assessed at Day3)
1 | FGF19: human FGF19 recombinant (Sigma); hormone activated by OCA | ~78% | significantly improved | 30 | inhibit the ROS production | significantly softened; also recorded: decreased | reduce the progression of fibrosis
2 | CC[C@H]1[C@@H](O)[C@@H]2[C@H](CC[C@]3(C)[C@@H]([C@H](C)CCC(=O)O)CC[C@@H]23)[C@@]2(C)CC[C@@H](O)C[C@@H]12 [OCA, obeticholic acid, reference compound] | around 83% | – | 20 | – | – | –
